Test systems include HS 578T breast; T-47D breast; MDA-N.
Common to all, as to experiment: DTP human tumour cell line panel, 48 h

“And” between values parts separate entries of the source, which are not always exact repeats. Equal values may be shown once.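 Assay format: 96-well plates, 48-hour exposure. GI50 = concentration required for 50% inhibition of growth. The concentration for full growth arrest is given as TGI.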

As to `CCOC(=O)c1cnc(SCc2ccc(Cl)c(Cl)c2)nc1N1CC1`, in the experiment on HS 578T breast, the GI50 is 2.31 µM and the TGI was 7.01 µM. In the experiment with T-47D breast, the GI50 is 3.15 µM and the TGI was found to be 19.5 µM.
The like results for `O=[N+]([O-])c1ccc(N/N=C\c2cc(Cl)ccc2O)nc1` were, in that order, 7.33 µM, above 100 µM, 2.86 µM and above 100 µM.
For `COc1cc(O)c(C(=O)/C=C/c2ccccc2)c(OC)c1`, the TGI was determined as 18.2 µM with HS 578T breast, 14.7 µM in the experiment with MDA-N and 24.6 µM in the experiment with T-47D breast.
The matching figures for `COc1cc(C(=O)O)c([N+](=O)[O-])c(OC)c1OC`: above 100 µM, above 100 µM and above 100 µM.
For the compound `COC(=O)[C@]12CC[C@@H](C)[C@H](C)[C@@H]1C1=CC[C@@H]3[C@@]4(C)CC(=O)[C@H](O)[C@@]5(C)COC(=C45)C[C@@]3(C)[C@]1(C)CC2`, in the experiment with HS 578T breast, the GI50 was 18.4 µM and the TGI came out at 45 µM. Moreover, in the experiment on T-47D breast, the GI50 was 18.4 µM and the TGI came to 38.8 µM.
On to `Nc1ccn(C=C=CCO)c(=O)n1`, for which, in the experiment with HS 578T breast, the GI50 is above 1000 µM and the TGI is above 1000 µM. In the experiment on T-47D breast, the GI50 is above 1000 µM and the TGI was above 1000 µM.
As for `O=C(c1cccs1)c1c(C(F)(F)F)n([O-])c2ccc(C(F)(F)F)cc2[n+]1=O`, in the experiment on T-47D breast, the GI50 is 0.51 µM and the TGI was 1.43 µM.
In the case of `Cn1cc(-c2ccc(=O)n(Cc3cccc(-c4ncc(OCCN5CCOCC5)cn4)c3)n2)cn1`, the GI50 in the experiment with HS 578T breast is above 100 µM; with T-47D breast, 20.9 µM. Besides, the results for the TGI in the experiment on HS 578T breast and in the experiment on T-47D breast were above 100 µM and above 81.5 µM, respectively.
Consider `CCCCCCCCCCCCCCCCCCNC(=O)[C@H]1CSC(c2ccc(OC)c(F)c2)N1` (stereo partly drawn), for which, in the experiment on HS 578T breast, the GI50 was 4.29 µM and the TGI turned out to be 20.3 µM. Further, in the experiment on T-47D breast, the GI50 was 2.21 µM and the TGI worked out at 6.57 µM.
`COc1ccccc1C(=O)/C=C/c1cc2cccc(OC)c2[nH]c1=O`: in the experiment with HS 578T breast, the GI50 is 0.0163 µM and the TGI was 10.8 µM. In the experiment on T-47D breast, the GI50 was 0.626 µM and the TGI worked out at 12.8 µM.
With `O=C1c2ccccc2-c2c1c1ccccc1c(=O)n2CCO`, the TGI with HS 578T breast, in the experiment on MDA-N and in the experiment with T-47D breast was above 100 µM each time.
In the case of `COc1cc[nH]c1/C=C1\C(=O)Nc2ccc(F)c(C#C[C@@H](O)[C@@H](N)[C@@H](C)O)c21`, the GI50 in the experiment on HS 578T breast is 0.381 µM; in the experiment on T-47D breast, 0.993 µM. Moreover, the TGI amounted to 1.68 µM in the experiment on HS 578T breast and 6.07 µM in the experiment on T-47D breast.
Turning to `O=C1C=C[C@]2(C[C@@H](c3cccc(C(F)(F)F)c3)O[C@@H](c3cccc(C(F)(F)F)c3)O2)O1`, in the experiment with HS 578T breast, the GI50 was 12.2 µM and the TGI came out at 60.7 µM. Also, in the experiment on T-47D breast, the GI50 was 1.1 µM and the TGI amounted to 3.96 µM.
Regarding `CCCCCCCCCCCCc1ccc(C(=O)/C=C/C(=O)O)cc1`, in the experiment on HS 578T breast, the GI50 is 7.61 µM and the TGI is 42.1 µM. Moreover, in the experiment on T-47D breast, the GI50 was 1.67 µM and the TGI worked out at 4.11 µM.
For the compound `COc1ccc(-c2cc(-c3ccc(Nc4nc(Nc5ccc(Cl)cc5)nc(Nc5ccc(Cl)cc5)n4)cc3)nc(N)c2C#N)cc1`, in the experiment with HS 578T breast, the GI50 is 1.48 µM and the TGI turned out to be 5.68 µM. Besides, in the experiment on T-47D breast, the GI50 was 0.894 µM and the TGI amounted to 5.39 µM.
With `C1=CN2C[n+]3cccc(OCc4ccccc4)c3N=C2C(OCc2ccccc2)=C1`, the TGI was 21.5 µM in the experiment on HS 578T breast and above 100 µM with T-47D breast.
For the compound `COc1ccc(/C(=C/c2cc(OC)c(OC)c(OC)c2)[N+](=O)[O-])cc1`, the GI50 in the experiment with HS 578T breast was 3.21 µM; in the experiment on T-47D breast, 1.65 µM. For the same compound, the results for the TGI with HS 578T breast and with T-47D breast were 21.4 µM and 10.3 µM, respectively.
The matching figures for `O=C1c2cc3c(cc2-c2c1c1cc(Cl)c(Cl)cc1c(=O)n2CCCn1ccnc1)OCO3`: 17.1 µM, below 0.01 µM, above 100 µM and 0.0636 µM.
The matching figures for `COc1cccc(NC(=O)c2sc3nc4c(cc3c2N)CCCC4)c1`: 0.75 µM, 0.529 µM, 54.6 µM and above 100 µM.
The like results for `COC(=O)c1cnc(=O)n(C2CC(O)C(CO)O2)c1` (stereo not drawn) were, in that order, above 100 µM, above 100 µM, above 100 µM and above 100 µM.
Consider `COc1cc(-c2cc(C(=O)N3CCN(C(=O)c4ccccc4NCc4ccco4)CC3)nc3cc(-c4ccccc4)nn23)cc(OC)c1OC`, for which, in the experiment on HS 578T breast, the GI50 was 3.1 µM and the TGI was above 29.3 µM. In the experiment with T-47D breast, the GI50 was 2.94 µM and the TGI was above 100 µM.
Take `Cc1ccc(-c2c(C#N)c(N)nc(N3CCOCC3)c2C#N)o1`: in the experiment with HS 578T breast, the GI50 was 39.2 µM and the TGI was above 100 µM.
Take `COc1cc2c3c(n(C)c(=O)c2cc1OC)-c1cc2c(cc1/C3=C\CCCCN)OCO2`: in the experiment on T-47D breast, the GI50 was 37.7 µM and the TGI is above 100 µM.
With `COc1cc(CCc2cc(NC(=O)c3ccc(N4C[C@@H](C)N[C@@H](C)C4)cc3)n[nH]2)cc(OC)c1`, the GI50 is 1.12 µM and 2.44 µM in the experiment on HS 578T breast; > 10 µM and 15.3 µM with T-47D breast. The TGI in the experiment with HS 578T breast is > 10 µM and 14.4 µM; in the experiment on T-47D breast, > 10 µM and 31.6 µM.
For `O=C(CCCc1c[nH]c2ccccc12)NC1CC(=O)c2c(Br)sc(Br)c21` (stereo not drawn), the values for the GI50 in the experiment with HS 578T breast and with T-47D breast were 6.44 µM and 26.5 µM, respectively. In addition, the TGI in the experiment on HS 578T breast was 51.3 µM; in the experiment on T-47D breast, above 100 µM.
Regarding `Cc1ccc2c(c1)NC(c1ccc(C(=O)O)cc1)c1cccn1-2` (stereo not drawn), the TGI in the experiment on MDA-N is above 100 µM; with T-47D breast it was 49.2 µM.
As for `O/N=C1\CCc2cc(-c3nc(C4CCNCC4)[nH]c3-c3ccncc3)ccc21`, in the experiment with HS 578T breast, the GI50 was above 25 µM and the TGI is above 25 µM. In the experiment on T-47D breast, the GI50 was above 25 µM and the TGI was above 25 µM.
Consider `Cc1ccc(S(=O)(=O)NC(CCC(=O)Nc2ccc(Cl)cc2)C(=O)Nc2ccc(Cl)cc2)cc1` (stereo not drawn), for which, in the experiment on HS 578T breast, the GI50 was 1.32 µM and the TGI came out at 7.5 µM. Moreover, in the experiment on T-47D breast, the GI50 is 0.151 µM and the TGI was 2.64 µM.
Regarding `CC1(C)N=C(N)N=C(N)N1c1cccc(/C=C/C=C/c2cccc([N+](=O)[O-])c2)c1`, in the experiment on HS 578T breast, the GI50 was 12.9 µM and the TGI stood at 34.7 µM.
In the case of `C[C@H]1[C@H](OC(=O)CCC(=O)O)O[C@@H]2O[C@]3(C)CC[C@H]4[C@H](C)CC[C@@H]1[C@@]24OO3`, in the experiment with HS 578T breast, the GI50 is 0.986 µM and the TGI worked out at 36.9 µM. Also, in the experiment on T-47D breast, the GI50 is 0.4 µM and the TGI was 22.7 µM.
In the case of `COc1cc2c(cc1OC)C(=O)C(Br)CC2` (stereo not drawn), the GI50 in the experiment on HS 578T breast is 7.48 µM; with T-47D breast it was 2.25 µM. The TGI worked out at 37.4 µM in the experiment with HS 578T breast and 5.06 µM in the experiment with T-47D breast.
The like results for `O=C1/C(=C\c2ccc(Cl)cc2)CN(C(=S)Nc2ccccc2)C/C1=C\c1ccc(Cl)cc1` were, in that order, 3 µM, 1.1 µM, 23.3 µM and 3.61 µM.
The like results for `Cc1cc(NC(=O)C2c3ccccc3C(=O)N(CC(C)C)C2c2cccs2)no1` (stereo not drawn) were, in that order, 86.7 µM, above 100 µM, above 100 µM and above 100 µM.
As for `COc1ccc(N(C)c2nc(C)nc3ccccc23)cc1`, in the experiment on HS 578T breast, the GI50 was below 0.01 µM and the TGI was above 100 µM. In the experiment on T-47D breast, the GI50 was 14.2 µM and the TGI was above 100 µM.
For `Nc1cccc2c1C(=O)N(C1CCC(=O)NC1=O)C2=O` (stereo not drawn), in the experiment on HS 578T breast, the GI50 is above 100 µM and the TGI was above 100 µM. In the experiment with T-47D breast, the GI50 is above 100 µM and the TGI is above 100 µM.
As to `Cc1cc2c(C)c3cc(C)c(N)cc3nc2cc1N`, the GI50 with HS 578T breast is 1.64 µM; in the experiment on T-47D breast, 0.754 µM. The TGI in the experiment with HS 578T breast came out at 7.95 µM; in the experiment with T-47D breast, 5.28 µM.
For the compound `O=c1c(Cl)nnc2sc3ccccc3n12`, in the experiment with HS 578T breast, the GI50 is 85.4 µM and the TGI is above 100 µM.
On to `O=C1CC(=O)N(C2CCCCC2)C(=O)N1c1ccccc1S(=O)(=O)Oc1ccccc1`, for which the TGI in the experiment with MDA-N and with T-47D breast was above 100 µM throughout.
As to `CC12OC(C(=O)C13CC3)C1C(=O)c3ccccc3C(=O)C12` (stereo not drawn), in the experiment on HS 578T breast, the GI50 is 22.6 µM and the TGI amounted to 63.9 µM. Also, in the experiment on T-47D breast, the GI50 was 24.4 µM and the TGI is above 100 µM.
The like results for `C[C@@H](c1ccc2nccn2c1)n1nnc2ncc(-c3cnn(C)c3)nc21` were, in that order, above 100 µM, above 100 µM, 53 µM and above 100 µM.
Take `O=S(=O)(c1ccc(NC(=S)N/N=C/c2ccccc2O)cc1)N1CCCCC1`: the TGI is 40.5 µM in the experiment on HS 578T breast and above 52.8 µM with T-47D breast.

As a reminder, the GI50 is the concentration that inhibits growth by half. What is called TGI is the concentration giving total growth inhibition. A high value points to lower sensitivity of the cells.
